Measurements taken from article PMC7000700, “RyR1-targeted drug discovery pipeline integrating FRET-based high-throughput screening and human myofiber dynamic Ca^2+ assays” (Scientific Reports, 2020).

Key:
[1] = target: T1, RyR1 (Sus scrofa, UniProt P16960); assay: F-FKBP binding to RyR1 by co-sedimentation with skeletal SR membranes; set-up: using co-sedimentation with pig skeletal and cardiac SR membranes; from tissue; host or cells: pig skeletal muscle (heavy SR membranes); species or system pig; settings: RyR1, 10 μM Hit, 30 nM Ca2+, 5 mM GSSG or GSH
Protocol: (§1) The Hit-induced effect on FRET between D-FKBP and A-CaM most likely results from one or the combination of factors, including a shift in CaM and/or FKBP12.6 binding, and/or structure of the RyR complex that shifts the D-A distance. Under the same assay conditions as in the primary screen, we assessed the effect of 10 μM Hit on fluorescent FKBP12.6 (F-FKBP) binding to RyRs, using co-sedimentation with pig skeletal and cardiac SR membranes.
(§2) Supplementary Fig. 3 Effect of HTS Hits on F-FKBP binding to a) RyR1 in skeletal HSR membranes, and b) RyR2
(§3) in cardiac CSR membranes at 30 nM Ca2+ in the presence of 5 mM GSSG or GSH. Results are represented as individual
(§4) data points and means ± SEM, n = 4-5. *P < 0.05 by 2-sided Student’s unpaired t-test. […]

[2] = target: T2, RyR2 (Sus scrofa, UniProt A0A5G2R1W3); assay: FLT-FRET between D-FKBP and A-CaM bound to RyR2 in cardiac SR membranes (dose-response); assay type: binding, porcine; set-up: RyR1 in skeletal SR membranes, and RyR2 in cardiac SR membranes; from tissue; host or cells: porcine cardiac left ventricle (crude SR vesicles); settings: RyR2, dose-response, 30 nM Ca2+
Protocol: (§5) Necessary counter-screens to our pathological RyR1 conditions include evaluating compound effects in healthy conditions and on the cardiac isoform, RyR2. Using the same FRET assay as in HTS, we tested the dose response of key Hits from this screen and the previously HTS-identified RyR1 inhibitor, chloroxine, on healthy (5 mM GSH) and pathological (5 mM GSSG) conditions for both RyR1 in skeletal SR membranes, and RyR2 in cardiac SR membranes.
(§6) Skeletal HSR and cardiac CSR (0.4 mg/ml) membranes were independently pre-incubated with 60 nM D-FKBP, for 90 min, at 37 °C, in a solution containing 150 mM KCl, 5 mM GSH, 0.1 mg/mL BSA, 1 µg/mL Aprotinin/Leupeptin, 1 mM DTT and 20 mM PIPES (pH 7.0). To remove unbound D-FKBP, the SR membranes were spun down at 110,000 × g for 20 min, and then resuspended to 1 mg/mL (skeletal HSR) and 2 mg/mL (cardiac CSR) in binding buffer consisting of 150 mM KCl, 5 mM GSSG, 0.1 mg/mL BSA, 1μg/mL Aprotinin/Leupeptin and 20 mM PIPES, pH 7.0. These samples were then incubated with indicated [A-CaM] for 30 min at 22 °C in binding buffer containing 0.065 mM CaCl2 to give 30 nM free Ca^2+ in the presence of 1 mM EGTA (calculated by MaxChelator). This labeled SR sample was applied to the assay plates in 5 μL aliquots using a Multidrop™ Combi reagent dispenser (Thermo Scientific) with a standard-tube. An additional set of the assay plates were loaded with skeletal HSR or cardiac CSR labeled with only D-FKBP (no added A-CaM).
(§7) FLT measurements were conducted in a top-read FLT-PR designed and built by Fluorescence Innovations, Inc[33]. AF488 donor fluorescence was excited with a 473-nm microchip laser from Concepts Research Corporation (Belgium, WI), and emission was acquired with 490-nm long-pass and 517/20-nm band-pass filters (Semrock, Rochester, NY).
(§8) FLT waveforms for each well were fit based on a one-exponential decay function using least-squares minimization global-analysis software (Fluorescence Innovations, Inc.), as previously described[19],[33]. FRET efficiency (E) was determined as the fractional decrease of donor FLT (τD), due to the presence of acceptor fluorophore (τDA), using the following equation:1 E=1−τDA/τD,

[3] = target: T1, RyR1; assay: FLT-FRET between D-FKBP and A-CaM bound to RyR1 in skeletal SR membranes (HTS and dose-response); assay type: binding, porcine; set-up: RyR1 in skeletal SR membranes, and RyR2 in cardiac SR membranes; from tissue; host or cells: porcine longissimus dorsi muscle (heavy SR vesicles); settings: 30 nM Ca2+
Protocol: To confer compatibility with current HTS standards in industrial drug discovery facilities, we miniaturized our screening format from the previously established 384-well plates, requiring 50 μL sample per well[19], to 1536-well plates, requiring 5 μL sample per well. The complete 1280-compound library of pharmacologically active compounds (LOPAC) was applied as 5 nL/well in 40 columns of one 1536-well black-wall/black-bottom plate, with the remaining 8 columns loaded with 5 nL/well of DMSO, as no-drug controls. For each run of the screen, three plates were loaded with either (1) unlabeled HSR, or (2) HSR pre-incubated with donor-FKBP (D-FKBP; donor-only sample), or (3) donor-only sample that was additionally incubated with 0.3 μM acceptor-CaM (A-CaM) for 60 min prior to loading on the plate (donor-acceptor sample). This sub-saturating concentration of A-CaM was used to provide a readout that is sensitive to library compounds that may increase or decrease CaM binding affinity to RyR. To promote a homogenous population of RyR1 resembling that associated with myopathies, final assay conditions also included 30 nM Ca^2+ to represent resting (muscle relaxing) Ca^2+, and 5 mM oxidized glutathione (GSSG), which exaggerates the conditions associated with oxidative stress.
We acquired both FLT waveforms and fluorescence spectra, as previously described[19],[33],[34]. As previously observed, Hit effects were greatest following a 2-hour incubation with the library compounds (Supplementary Fig. 1a). As a result, all FRET results shown in Figs. 1 and 2, and Supplementary Fig. 2 are reported from the 2-hour incubation.
as §5, §6, §7
as §8, with “E=1−τDA/τD, […]” for “E=1−τDA/τD,”

[4] = target: T2, RyR2; assay: F-FKBP binding to RyR2 by co-sedimentation with cardiac SR membranes; set-up: using co-sedimentation with pig skeletal and cardiac SR membranes; from tissue; host or cells: pig cardiac muscle (crude SR membranes); species or system pig; settings: RyR2, 10 μM Hit, 30 nM Ca2+, 5 mM GSSG or GSH
Protocol: as §1, §2, §3, §4

[5] = target: ryanodine receptor, skeletal muscle isoform (RyR1), in porcine skeletal heavy SR membranes (pig (endogenous in porcine longissimus dorsi muscle)) (UniProt P16960); assay: co-sedimentation; fluorescent FKBP12.6 co-sedimented with pig skeletal and cardiac SR membranes, same conditions as the primary screen; with 10 μM temsirolimus or tacrolimus
[6] = target: ryanodine receptor, cardiac isoform (RyR2), in porcine cardiac SR membranes (pig (endogenous in porcine cardiac left ventricle)); assay: as above
[7] = target: ryanodine receptor, skeletal muscle isoform (RyR1), in porcine skeletal heavy SR membranes (pig (endogenous in porcine longissimus dorsi muscle)) (UniProt P16960); assay: FRET or BRET; same FLT-FRET read-out with temsirolimus (dose response); skeletal and cardiac SR membranes, 30 nM Ca2+, 5 mM GSSG or GSH
[8] = target: ryanodine receptor, cardiac isoform (RyR2), in porcine cardiac SR membranes (pig (endogenous in porcine cardiac left ventricle)); assay: as above

T1 sequence (P16960 whole entry): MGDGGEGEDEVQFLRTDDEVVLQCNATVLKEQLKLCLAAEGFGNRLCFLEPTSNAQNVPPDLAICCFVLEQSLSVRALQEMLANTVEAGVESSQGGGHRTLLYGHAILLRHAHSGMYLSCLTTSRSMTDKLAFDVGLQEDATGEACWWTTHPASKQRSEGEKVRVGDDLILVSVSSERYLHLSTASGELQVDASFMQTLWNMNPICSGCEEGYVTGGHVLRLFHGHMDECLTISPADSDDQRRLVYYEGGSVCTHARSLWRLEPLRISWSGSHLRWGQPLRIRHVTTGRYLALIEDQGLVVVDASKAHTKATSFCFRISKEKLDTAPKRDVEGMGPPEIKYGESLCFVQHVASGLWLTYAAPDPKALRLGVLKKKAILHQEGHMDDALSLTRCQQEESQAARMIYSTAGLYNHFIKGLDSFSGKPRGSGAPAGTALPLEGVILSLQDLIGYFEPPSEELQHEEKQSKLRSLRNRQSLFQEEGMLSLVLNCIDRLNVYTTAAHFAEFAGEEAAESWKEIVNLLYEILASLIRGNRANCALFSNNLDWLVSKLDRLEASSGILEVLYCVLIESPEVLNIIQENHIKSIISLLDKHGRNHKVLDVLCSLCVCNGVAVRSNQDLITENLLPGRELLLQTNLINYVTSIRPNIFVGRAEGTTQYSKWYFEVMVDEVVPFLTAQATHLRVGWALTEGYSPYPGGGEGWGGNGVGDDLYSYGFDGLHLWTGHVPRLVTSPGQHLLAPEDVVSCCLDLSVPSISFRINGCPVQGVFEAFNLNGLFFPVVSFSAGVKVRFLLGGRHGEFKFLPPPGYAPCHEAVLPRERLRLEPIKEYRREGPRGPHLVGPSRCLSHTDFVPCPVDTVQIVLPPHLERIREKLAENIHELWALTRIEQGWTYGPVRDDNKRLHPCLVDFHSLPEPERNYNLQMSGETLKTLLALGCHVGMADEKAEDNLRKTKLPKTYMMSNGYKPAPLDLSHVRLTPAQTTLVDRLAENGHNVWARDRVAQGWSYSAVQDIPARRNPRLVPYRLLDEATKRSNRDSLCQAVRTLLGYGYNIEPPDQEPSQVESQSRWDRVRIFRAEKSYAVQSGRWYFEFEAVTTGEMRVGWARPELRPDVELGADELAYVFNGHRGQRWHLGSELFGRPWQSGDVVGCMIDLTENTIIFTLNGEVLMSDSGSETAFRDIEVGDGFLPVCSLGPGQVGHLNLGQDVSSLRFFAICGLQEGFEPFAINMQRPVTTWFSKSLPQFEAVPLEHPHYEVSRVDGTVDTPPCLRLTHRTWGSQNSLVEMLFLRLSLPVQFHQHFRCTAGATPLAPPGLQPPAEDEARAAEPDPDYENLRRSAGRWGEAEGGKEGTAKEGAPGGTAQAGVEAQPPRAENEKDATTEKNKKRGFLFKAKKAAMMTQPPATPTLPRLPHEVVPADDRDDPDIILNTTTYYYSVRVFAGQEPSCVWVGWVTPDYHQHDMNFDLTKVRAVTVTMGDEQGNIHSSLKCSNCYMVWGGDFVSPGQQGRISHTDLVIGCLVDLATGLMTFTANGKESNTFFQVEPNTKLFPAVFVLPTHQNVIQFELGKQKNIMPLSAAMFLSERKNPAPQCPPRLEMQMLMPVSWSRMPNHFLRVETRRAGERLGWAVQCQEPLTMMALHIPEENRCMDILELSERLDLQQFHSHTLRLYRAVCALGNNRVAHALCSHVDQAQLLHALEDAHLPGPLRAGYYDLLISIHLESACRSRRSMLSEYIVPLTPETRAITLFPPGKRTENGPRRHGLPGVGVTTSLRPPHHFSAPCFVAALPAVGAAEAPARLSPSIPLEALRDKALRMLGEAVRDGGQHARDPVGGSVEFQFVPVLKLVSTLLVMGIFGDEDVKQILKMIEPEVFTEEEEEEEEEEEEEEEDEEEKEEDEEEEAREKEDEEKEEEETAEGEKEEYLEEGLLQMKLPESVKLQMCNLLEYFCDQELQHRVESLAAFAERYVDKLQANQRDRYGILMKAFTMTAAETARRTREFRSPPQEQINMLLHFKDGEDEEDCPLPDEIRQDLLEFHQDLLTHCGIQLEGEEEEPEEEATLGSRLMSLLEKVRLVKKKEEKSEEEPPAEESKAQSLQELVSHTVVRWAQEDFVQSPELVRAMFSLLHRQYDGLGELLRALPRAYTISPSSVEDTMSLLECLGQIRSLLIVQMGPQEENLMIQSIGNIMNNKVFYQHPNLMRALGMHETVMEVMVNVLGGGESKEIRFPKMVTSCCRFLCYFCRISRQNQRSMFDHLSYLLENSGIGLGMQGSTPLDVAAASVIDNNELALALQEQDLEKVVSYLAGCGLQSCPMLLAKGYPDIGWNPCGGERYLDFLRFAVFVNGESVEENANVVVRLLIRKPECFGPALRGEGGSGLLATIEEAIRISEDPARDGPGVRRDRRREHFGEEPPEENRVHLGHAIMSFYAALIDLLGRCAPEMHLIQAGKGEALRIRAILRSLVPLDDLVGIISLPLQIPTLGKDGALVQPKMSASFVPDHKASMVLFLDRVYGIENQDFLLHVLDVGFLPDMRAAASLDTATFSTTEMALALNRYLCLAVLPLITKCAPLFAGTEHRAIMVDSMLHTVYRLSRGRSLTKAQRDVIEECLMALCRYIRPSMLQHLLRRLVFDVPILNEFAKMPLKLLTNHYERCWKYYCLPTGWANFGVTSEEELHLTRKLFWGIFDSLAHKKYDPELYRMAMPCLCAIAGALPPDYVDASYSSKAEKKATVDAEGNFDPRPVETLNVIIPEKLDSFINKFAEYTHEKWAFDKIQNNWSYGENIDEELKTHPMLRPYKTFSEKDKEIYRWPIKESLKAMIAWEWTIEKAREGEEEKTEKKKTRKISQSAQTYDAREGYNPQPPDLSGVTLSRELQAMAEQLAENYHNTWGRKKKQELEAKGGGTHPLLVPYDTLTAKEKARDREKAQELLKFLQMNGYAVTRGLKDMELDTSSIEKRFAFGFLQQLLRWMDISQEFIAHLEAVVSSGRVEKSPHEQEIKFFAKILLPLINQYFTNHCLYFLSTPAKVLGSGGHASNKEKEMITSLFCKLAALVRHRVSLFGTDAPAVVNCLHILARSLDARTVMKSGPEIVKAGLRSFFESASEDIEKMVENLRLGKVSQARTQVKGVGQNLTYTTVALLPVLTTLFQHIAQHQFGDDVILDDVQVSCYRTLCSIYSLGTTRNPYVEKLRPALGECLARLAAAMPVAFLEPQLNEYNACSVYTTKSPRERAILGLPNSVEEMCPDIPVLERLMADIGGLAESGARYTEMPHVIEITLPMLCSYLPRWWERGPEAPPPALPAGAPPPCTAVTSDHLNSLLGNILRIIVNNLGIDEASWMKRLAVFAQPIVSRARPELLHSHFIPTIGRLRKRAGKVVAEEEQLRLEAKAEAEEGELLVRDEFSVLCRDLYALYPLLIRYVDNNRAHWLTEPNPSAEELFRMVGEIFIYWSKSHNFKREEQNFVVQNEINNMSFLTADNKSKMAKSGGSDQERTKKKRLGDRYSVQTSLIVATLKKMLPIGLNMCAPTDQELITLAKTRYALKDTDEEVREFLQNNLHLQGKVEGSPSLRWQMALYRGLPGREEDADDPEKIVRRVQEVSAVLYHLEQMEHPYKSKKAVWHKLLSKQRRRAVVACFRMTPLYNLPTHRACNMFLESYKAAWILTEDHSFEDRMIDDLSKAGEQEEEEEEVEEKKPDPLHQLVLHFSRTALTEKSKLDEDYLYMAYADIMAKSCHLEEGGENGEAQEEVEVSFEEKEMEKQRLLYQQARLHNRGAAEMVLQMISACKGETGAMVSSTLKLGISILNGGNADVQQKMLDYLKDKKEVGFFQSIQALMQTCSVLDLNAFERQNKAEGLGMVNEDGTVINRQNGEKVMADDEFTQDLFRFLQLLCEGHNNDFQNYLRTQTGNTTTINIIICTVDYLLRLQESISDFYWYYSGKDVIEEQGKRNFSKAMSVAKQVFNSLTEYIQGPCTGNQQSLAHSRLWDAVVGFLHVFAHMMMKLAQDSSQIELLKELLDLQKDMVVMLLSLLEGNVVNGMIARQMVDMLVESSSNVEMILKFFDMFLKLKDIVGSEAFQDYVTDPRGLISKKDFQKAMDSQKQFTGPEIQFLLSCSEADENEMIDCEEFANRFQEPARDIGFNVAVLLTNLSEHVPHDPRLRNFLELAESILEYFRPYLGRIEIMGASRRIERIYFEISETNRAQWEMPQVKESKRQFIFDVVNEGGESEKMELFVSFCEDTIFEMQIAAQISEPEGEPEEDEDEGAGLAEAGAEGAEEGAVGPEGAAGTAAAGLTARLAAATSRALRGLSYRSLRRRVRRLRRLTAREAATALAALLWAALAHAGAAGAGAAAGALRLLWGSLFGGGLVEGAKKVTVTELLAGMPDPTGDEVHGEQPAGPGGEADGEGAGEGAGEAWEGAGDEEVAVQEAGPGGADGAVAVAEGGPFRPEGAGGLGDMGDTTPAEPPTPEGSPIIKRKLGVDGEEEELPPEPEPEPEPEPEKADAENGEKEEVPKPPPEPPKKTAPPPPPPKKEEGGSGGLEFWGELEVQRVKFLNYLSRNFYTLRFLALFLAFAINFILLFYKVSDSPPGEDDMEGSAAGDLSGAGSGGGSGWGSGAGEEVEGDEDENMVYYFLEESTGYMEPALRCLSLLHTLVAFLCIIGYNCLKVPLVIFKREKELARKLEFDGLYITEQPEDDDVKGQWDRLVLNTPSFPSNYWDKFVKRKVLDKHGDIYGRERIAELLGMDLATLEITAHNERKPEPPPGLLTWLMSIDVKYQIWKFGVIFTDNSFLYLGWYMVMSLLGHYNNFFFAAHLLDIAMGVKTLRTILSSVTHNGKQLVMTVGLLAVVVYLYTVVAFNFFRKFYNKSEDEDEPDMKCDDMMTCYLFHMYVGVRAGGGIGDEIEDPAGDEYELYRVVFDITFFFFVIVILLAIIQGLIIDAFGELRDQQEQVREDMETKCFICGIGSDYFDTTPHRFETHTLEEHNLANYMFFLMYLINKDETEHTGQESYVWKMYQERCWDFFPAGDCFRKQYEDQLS

Compound | Decrease of F-FKBP binding [1] [%] | FRET reduction [2] | Hit in primary FLT-FRET HTS of LOPAC (FRET altered by > 4 SD vs DMSO) ([3]; 10 μM compound, 2-hour incubation, 5 mM GSSG, 0.3 μM A-CaM, 1536-well) | FRET reduction ([3]; RyR1, dose-response) | Decrease of F-FKBP binding [4] [%] | percent decrease of binding with 10 μM temsirolimus or tacrolimus [5] [%] | percent decrease of binding with 10 μM temsirolimus or tacrolimus [6] [%] | FRET reduction by temsirolimus [7] [%] | FRET reduction by temsirolimus [8] [%]
CO[C@H]1C[C@@H]2CC[C@@H](C)[C@@](O)(O2)C(=O)C(=O)N2CCCC[C@H]2C(=O)O[C@H]([C@H](C)C[C@@H]2CC[C@@H](OC(=O)C(C)(CO)CO)[C@H](OC)C2)CC(=O)[C@H](C)/C=C(\C)[C@@H](O)[C@@H](OC)C(=O)[C@H](C)C[C@H](C)/C=C/C=C/C=C/1C [temsirolimus] | 20 | 68–70% | identified | ~ 10% | 70 |  |  |  | 
FKBP12.6 single-cysteine mutant (C22A/T85C/C76I) labeled with AF488 (donor-FKBP) (natural protein) |  |  |  |  |  | 20 | 70 | 10 | 68 to 70
